Values after ≈ are worked out from the molar mass of the structure shown. Each block holds one compound with its values, some of them ahead of it.
Tests used:
Assay in all cases: ≥ marks a high value that may be exact or a test limit, other limits are often not marked, values filed in µg/mL are converted to µM
[1] = test system: Enterococcus faecalis ATCC 29212
Listeria monocytogenes = test system: Listeria monocytogenes
[2] = test system: Staphylococcus aureus ATCC 29213
[3] = test system: Listeria monocytogenes NCTC 18890
[4] = test system: Staphylococcus aureus ATCC 25923
[5] = test system: Listeria monocytogenes ATCC 7644
[6] = test system: Listeria monocytogenes ATCC 19114
[7] = test system: Staphylococcus epidermidis ATCC 35984
[8] = test system: Staphylococcus aureus ATCC 6538
[9] = test system: Pseudomonas aeruginosa ATCC 15442
[10] = test system: Listeria monocytogenes ATCC 19115
[11] = test system: Bacillus subtilis ATCC 6633
[12] = test system: Staphylococcus aureus ATCC 9144
[13] = test system: Escherichia coli ATCC 10536
[14] = test system: Escherichia coli DH5alpha
[15] = test system: Pseudomonas aeruginosa PAO1
[16] = test system: Escherichia coli ATCC 25922
[17] = test system: Staphylococcus aureus JE2
[18] = test system: Klebsiella pneumoniae ATCC 13883
[19] = test system: Pseudomonas aeruginosa ATCC 27853
[20] = test system: Micrococcus luteus ATCC 49732
[21] = test system: Klebsiella pneumoniae NCTC 5055
[22] = test system: Escherichia coli ATCC 15597
[23] = test system: Salmonella typhimurium DA6192
[24] = test system: Escherichia coli BCRC 13B0198
[25] = test system: Acinetobacter baumannii BCRC 14B0100
[26] = test system: Acinetobacter baumannii BCRC 14B0097
[27] = test system: Enterococcus faecium BCRC 15B0132
[28] = test system: Acinetobacter baumannii BCRC 14B0091
[29] = test system: Escherichia coli BCRC 13B0207
[30] = test system: Legionella pneumophila Lens
Escherichia coli MC1061 = test system: Escherichia coli MC1061
[31] = test system: Salmonella enterica subsp. enterica serovar Enteritidis MH91989
Escherichia coli JJ2487 = test system: Escherichia coli JJ2487
[32] = test system: Salmonella typhimurium SL1344
Escherichia coli J2210 = test system: Escherichia coli J2210
Escherichia coli O157:H7 = test system: Escherichia coli O157:H7
Escherichia coli C25 = test system: Escherichia coli C25

SMILES: CC(C)C[C@H](NC(=O)[C@H](C)NC(=O)[C@H](Cc1cnc[nH]1)NC(=O)[C@H](Cc1cnc[nH]1)NC(=O)CNC(=O)[C@H](CC(C)C)NC(=O)[C@H](Cc1cnc[nH]1)NC(=O)[C@H](CO)NC(=O)[C@H](C)N)C(=O)N[C@@H](CC(=O)O)C(=O)N[C@@H](Cc1cnc[nH]1)C(=O)N[C@@H](CC(C)C)C(=O)N[C@@H](CC(C)C)C(=O)N[C@@H](CCCCN)C(=O)O [ASHLGHHALDHLLK]
MIC [1]: 8070 µM (≈ 12500 µg/mL)
MIC (Listeria monocytogenes): ≥ 3230 µM
MIC [2]: 8070 µM (≈ 12500 µg/mL)
MIC [3]: ≥ 3230 µM
MIC [4]: 8070 µM (≈ 12500 µg/mL)
MIC [5]: ≥ 3230 µM
MIC [6]: ≥ 3230 µM
MIC [7]: ≥ 8070 µM
MIC [8]: 8070 µM (≈ 12500 µg/mL)
MIC [9]: ≥ 8070 µM
MIC [10]: ≥ 3230 µM

SMILES: CC[C@H](C)[C@H](NC(=O)CN)C(=O)NCC(=O)N[C@@H](C)C(=O)N[C@H](C(=O)N[C@@H](CC(C)C)C(=O)N[C@@H](CCCCN)C(=O)N[C@H](C(=O)N[C@@H](CC(C)C)C(=O)N[C@H](C(=O)N[C@H](C(=O)NCC(=O)N[C@@H](CC(C)C)C(=O)N1CCC[C@H]1C(=O)N[C@@H](C)C(=O)N[C@@H](C)C(=O)N[C@H](C(=O)N[C@@H](CO)C(=O)N[C@@H](Cc1c[nH]c2ccccc12)C(=O)N[C@H](C(=O)N[C@@H](CCCCN)C(=O)N[C@@H](CCCN=C(N)N)C(=O)N[C@@H](CCCCN)C(=O)N[C@@H](CCCN=C(N)N)C(=O)N[C@@H](CCC(N)=O)C(=O)N[C@@H](CCC(N)=O)C(N)=O)[C@@H](C)CC)[C@@H](C)CC)[C@@H](C)O)[C@@H](C)O)C(C)C)C(C)C [GIGAVLKVLTTGLPAAISWIKRKRQQ]
MIC [11]: 3.9 µM (≈ 10.9 µg/mL)
MIC [12]: 4.2 µM (≈ 11.8 µg/mL)
MIC [13]: 4.1 µM (≈ 11.5 µg/mL)
MIC [14]: 4.2 µM (≈ 11.8 µg/mL)

SMILES: CC(C)C[C@H](NC(=O)[C@H](CC(C)C)NC(=O)[C@H](CCCCN)NC(=O)[C@H](CC(C)C)NC(=O)CNC(=O)[C@H](CC(C)C)NC(=O)[C@H](CCCCN)NC(=O)[C@H](CC(C)C)NC(=O)[C@H](CC(C)C)NC(=O)[C@H](CC(C)C)NC(=O)[C@H](CCCCN)NC(=O)[C@H](CC(C)C)NC(=O)CN)C(N)=O [GLKLLLKLGLKLL]
MIC [15]: > 25 µM
MIC [16]: > 25 µM
MIC [17]: 1.56 µM (≈ 2.22 µg/mL)
MIC [18]: 25 µM (≈ 35.5 µg/mL)

SMILES: CC[C@H](C)[C@H](N)C(=O)N[C@H](C(=O)N[C@@H](CCCCN)C(=O)N[C@@H](CCC(N)=O)C(=O)N[C@H](C(=O)N[C@H](C(=O)N[C@@H](CCCCN)C(=O)N[C@@H](CCC(N)=O)C(=O)N[C@@H](CC(C)C)C(=O)N[C@@H](CC(N)=O)C(=O)N[C@@H](CCCN=C(N)N)C(=O)N[C@@H](CCC(N)=O)C(=O)N[C@H](C(=O)N[C@@H](CCCCN)C(=O)N[C@H](C(=O)N[C@@H](CCC(N)=O)C(=O)N[C@@H](CO)C(=O)N[C@@H](CCCCN)C(=O)O)[C@@H](C)CC)[C@@H](C)O)[C@@H](C)O)[C@@H](C)CC)[C@@H](C)O [ITKQITKQLNRQTKIQSK]
MIC [11]: ≥ 100 µM
MIC [19]: > 100 µM
MIC [20]: ≥ 100 µM
MIC [21]: ≥ 100 µM
MIC [22]: ≥ 100 µM
MIC [8]: > 100 µM
MIC [23]: ≥ 100 µM

Further lines, results first:

MIC [24]: ≥ 46.7 µM
MIC [25]: ≥ 46.7 µM
MIC [26]: ≥ 46.7 µM
MIC [27]: ≥ 46.7 µM
MIC [28]: ≥ 46.7 µM
MIC [29]: ≥ 46.7 µM
SMILES: CC(=O)N[C@@H](CCCCN)C(=O)N[C@@H](CCCCN)C(=O)N[C@@H](Cc1c[nH]c2ccccc12)C(=O)N[C@@H](CCCN=C(N)N)C(=O)N[C@@H](CCCCN)C(=O)N[C@@H](Cc1c[nH]c2ccccc12)C(=O)N[C@@H](CC(C)C)C(=O)N[C@@H](C)C(=O)N[C@@H](CCCCN)C(=O)N[C@@H](CCCCN)C(N)=O [KKWRKWLAKK]

MIC [30]: 1.26 µM (≈ 3.12 µg/mL)
SMILES: CC[C@H](C)[C@H](NC(=O)[C@H](CC(C)C)NC(=O)[C@H](CC(=O)O)NC(=O)[C@@H](NC(=O)[C@@H](NC(=O)[C@H](Cc1ccccc1)NC(=O)[C@H](CCC(N)=O)NC(=O)[C@@H](N)CCSC)[C@@H](C)CC)[C@@H](C)O)C(=O)N[C@@H](CCCCN)C(=O)N[C@@H](CCCCN)C(=O)N[C@@H](C)C(=O)N[C@H](C(=O)N[C@@H](CC(=O)O)C(=O)N[C@H](C(=O)N[C@H](C(=O)N[C@@H](CCCCN)C(=O)NCC(=O)N[C@@H](CC(C)C)C(=O)N[C@@H](Cc1ccccc1)C(=O)NCC(=O)N[C@@H](CC(N)=O)C(=O)N[C@@H](CCCCN)C(=O)O)[C@@H](C)CC)C(C)C)C(C)C [MQFITDLIKKAVDVIKGLFGNK]

MIC (Escherichia coli MC1061): 0.0616 µM (≈ 0.15 µg/mL)
MIC [31]: 0.172 µM (≈ 0.42 µg/mL)
MIC (Escherichia coli JJ2487): 0.123 µM (≈ 0.3 µg/mL)
MIC [32]: 0.172 µM (≈ 0.42 µg/mL)
MIC (Escherichia coli J2210): 0.0821 µM (≈ 0.2 µg/mL)
MIC (Escherichia coli O157:H7): 0.644 µM (≈ 1.57 µg/mL)
SMILES: CC[C@H](C)[C@H](NC(=O)[C@H](CCCN=C(N)N)NC(=O)[C@H](CCCN=C(N)N)NC(=O)[C@@H]1CCCN1C(=O)[C@@H]1CCCN1C(=O)[C@H](CCCN=C(N)N)NC(=O)[C@@H]1CCCN1C(=O)[C@H](CCCN=C(N)N)NC(=O)[C@@H]1CCCN1C(=O)[C@H](CCCCN)NC(=O)[C@H](Cc1ccc(O)cc1)NC(=O)[C@@H]1CCCN1C(=O)[C@H](CCCCN)NC(=O)[C@H](CCCCN)NC(=O)[C@H](CC(=O)O)NC(=O)[C@@H](N)C(C)C)C(=O)N[C@@H](Cc1ccc(O)cc1)C(=O)N[C@@H](CC(N)=O)C(=O)N[C@@H](CCCN=C(N)N)C(N)=O [VDKKPYKPRPRPPRRIYNR]

MIC [4]: 72 µM (≈ 124 µg/mL)
MIC (Escherichia coli C25): ≥ 72 µM
SMILES: CC[C@H](C)[C@H](NC(=O)CNC(=O)[C@H](CCCN=C(N)N)NC(=O)[C@H](Cc1ccc(O)cc1)NC(=O)[C@@H](NC(=O)[C@H](CCCN=C(N)N)NC(=O)[C@H](Cc1ccccc1)NC(=O)[C@@H](N)Cc1c[nH]c2ccccc12)C(C)C)C(=O)N[C@@H](Cc1ccc(O)cc1)C(=O)N[C@@H](CCCN=C(N)N)C(=O)N[C@@H](CCCN=C(N)N)C(=O)N[C@@H](CCCN=C(N)N)C(N)=O [WFRVYRGIYRRR]

Reference: DBAASP
